How the values were obtained:
[1] = target: T1, Acyl-CoA desaturase 1 (Mus musculus) (UniProt P13516); assay: Inhibition of SCD1 in CD1 mouse liver at 100 nM using stearoyl [9,10-3H] CoA as substrate and NADPH incubated for 2 hrs by scintillation counting method
T1 sequence (whole entry): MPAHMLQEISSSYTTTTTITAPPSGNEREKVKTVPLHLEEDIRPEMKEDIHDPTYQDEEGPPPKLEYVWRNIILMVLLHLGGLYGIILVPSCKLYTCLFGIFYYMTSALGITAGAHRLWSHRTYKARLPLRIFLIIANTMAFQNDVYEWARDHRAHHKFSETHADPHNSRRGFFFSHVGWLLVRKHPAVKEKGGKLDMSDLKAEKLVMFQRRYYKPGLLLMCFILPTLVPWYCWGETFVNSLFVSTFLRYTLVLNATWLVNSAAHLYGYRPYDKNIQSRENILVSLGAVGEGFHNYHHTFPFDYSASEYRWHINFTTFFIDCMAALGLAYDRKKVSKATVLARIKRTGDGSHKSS

NCI-H1155 [2] = assay: Cytotoxicity against human NCI-H1155 cells expressing CYP4F11 incubated for 4 days; assay type: functional, cell-based; conditions: NCI-H1155, 96 h
NCI-H1155 [3] = assay: Cytotoxicity against human NCI-H1155 cells incubated for 4 days in presence of sodium oleate; assay type: functional, cell-based; conditions: NCI-H1155, 96 h
NCI-H1155 [4] = assay: Cytotoxicity against human NCI-H1155 cells expressing CYP4F11 incubated for 4 days in presence of sodium oleate; assay type: functional, cell-based; conditions: NCI-H1155, 96 h
NCI-H1155 [5] = assay: Cytotoxicity against human NCI-H1155 cells expressing pLVX empty vector incubated for 4 days; assay type: functional, cell-based; conditions: NCI-H1155, 96 h
NCI-H2122 [6] = assay: Cytotoxicity against human NCI-H2122 cells incubated for 4 days; assay type: functional, cell-based; conditions: NCI-H2122, 96 h
[7] = Half life in mouse liver S9 fraction by LC-MS/MS analysis; assay type: ADME, subcellular
NCI-H2009 = assay: Cytotoxicity against human NCI-H2009 cells; assay type: functional, cell-based
HCC95 [8] = assay: Cytotoxicity against human HCC95 cells; assay type: functional, cell-based
NCI-H1155 [9] = assay: Cytotoxicity against human NCI-H1155 cells; assay type: functional, cell-based
[10] = Cytotoxicity against human NCI-H2073 cells; assay type: functional, cell-based
NCI-H460 [11] = assay: Cytotoxicity against human NCI-H460 cells at > 50 uM relative to control; assay type: functional
HCC95 [12] = assay: Cytotoxicity against human HCC95 cells at > 50 uM relative to control; assay type: functional
HCC44 [13] = assay: Cytotoxicity against human HCC44 cells; assay type: functional, cell-based
HCC4017 = assay: Cytotoxicity against human HCC4017 cells; assay type: functional, cell-based
NCI-H2122 [14] = assay: Cytotoxicity against human NCI-H2122 cells; assay type: functional, cell-based
[15] = Cytotoxicity against human NCI-H1819 cells; assay type: functional, cell-based
NCI-H460 [16] = assay: Cytotoxicity against human NCI-H460 cells; assay type: functional, cell-based
[17] = Cytotoxicity against human HCC366 cells; assay type: functional, cell-based
NCI-H1395 = assay: Cytotoxicity against human NCI-H1395 cells; assay type: functional, cell-based
NCI-H2122 [18] = assay: Cytotoxicity against human NCI-H2122 cells at > 50 uM relative to control; assay type: functional
NCI-H1993 = assay: Cytotoxicity against human NCI-H1993 cells; assay type: functional, cell-based
HCC44 [19] = assay: Cytotoxicity against human HCC44 cells at > 50 uM relative to control; assay type: functional
[20] = Drug level in human NCI-H1155 cells after 4 hrs by LC-MS/MS analysis; assay type: ADME, cell-based; conditions: nci-h1155, 4 h
CYP4F11 = target: T2, CYP4F11 (Homo sapiens, UniProt Q9HBI6); assay: Drug metabolism in human NCI-H1155 cells assessed as CYP4F11-meidated O-demethylation by measuring half life at 500 nM by LC-MS/MS analysis; assay type: ADME, cell-based
T2 sequence (Q9HBI6 whole entry): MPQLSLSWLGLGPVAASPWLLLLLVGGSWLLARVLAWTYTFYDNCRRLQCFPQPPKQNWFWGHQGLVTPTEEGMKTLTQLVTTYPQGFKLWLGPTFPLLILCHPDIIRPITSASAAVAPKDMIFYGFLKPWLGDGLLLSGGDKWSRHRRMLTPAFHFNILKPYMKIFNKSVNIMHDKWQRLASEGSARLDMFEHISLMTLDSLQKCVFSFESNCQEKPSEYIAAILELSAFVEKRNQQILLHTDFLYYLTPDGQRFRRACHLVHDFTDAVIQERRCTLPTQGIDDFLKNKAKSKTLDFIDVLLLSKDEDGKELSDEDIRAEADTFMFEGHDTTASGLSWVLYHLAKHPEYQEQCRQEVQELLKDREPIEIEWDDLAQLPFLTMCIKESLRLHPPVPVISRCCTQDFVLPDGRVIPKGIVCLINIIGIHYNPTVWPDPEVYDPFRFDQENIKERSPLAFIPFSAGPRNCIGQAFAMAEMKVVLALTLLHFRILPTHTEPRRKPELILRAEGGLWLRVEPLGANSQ

[21] = Half life in human NCI-H1155 cells at 500 nM by LC-MS/MS analysis; assay type: ADME, cell-based
NCI-H1155 [22] = assay: Ratio of EC50 for cytotoxicity against human NCI-H1155 cells expressing CYP4F11 incubated for 4 days in presence of sodium oleate to EC50 for cytotoxicity against human NCI-H1155 cells expressing CYP4F11 incubated for 4 days in absence of sodium oleate; assay type: functional
[23] = target: T1, Acyl-CoA desaturase 1 (Mus musculus); assay: Inhibition of SCD1 in CD1 mouse liver at 3 uM using stearoyl [9,10-3H] CoA as substrate and NADPH incubated for 2 hrs by scintillation counting method

Question: With `O=C(NCCc1ccc(O)cc1)NC(=O)c1ccc(COc2ccccc2)cc1` as the compound, how does the inhibition [1] read?
Answer: The inhibition was 96%.

Question: What about the EC50 (NCI-H1155 [2]) of the same compound?
Answer: The EC50 was 0.051 µM.

Question: And the EC50 (NCI-H1155 [3])?
Answer: Its EC50 is 12 µM.

Question: What about the EC50 (NCI-H1155 [4]) of the same compound?
Answer: Its EC50 is 6.4 µM.

Question: What about the EC50 (NCI-H1155 [5]) of the same compound?
Answer: Its EC50 is 0.007 µM.

Question: What about the EC50 (NCI-H2122 [6]) of the same compound?
Answer: Its EC50 is 0.011 µM.

Question: What about the half-life [7] of the same compound?
Answer: Its half-life is greater than 4 h.

Question: What does the source list for `COc1ccc(CCNC(=O)C(=O)Nc2ccc(Cl)cc2)cc1`?
Answer: EC50 (NCI-H2009): > 10 µM; EC50 (HCC95 [8]): < 1 µM; EC50 (NCI-H1155 [9]): > 10 µM; EC50 [10]: > 10 µM; Activity (NCI-H460 [11]): >95%; Activity (HCC95 [12]): >95%; EC50 (HCC44 [13]): < 1 µM; EC50 (HCC4017): > 10 µM; EC50 (NCI-H2122 [14]): < 1 µM; EC50 [15]: > 10 µM; EC50 (NCI-H1155 [2]): 0.67 µM; EC50 (NCI-H1155 [3]): > 50 µM; EC50 (NCI-H460 [16]): < 1 µM; EC50 (NCI-H1155 [4]): > 50 µM; EC50 (NCI-H1155 [5]): 36 µM; EC50 [17]: > 10 µM; EC50 (NCI-H2122 [6]): 0.22 µM; EC50 (NCI-H1395): > 10 µM; Activity (NCI-H2122 [18]): >95%; EC50 (NCI-H1993): > 10 µM; half-life [7]: 0.117 h; Activity (HCC44 [19]): >95%

Question: For `C#CCOc1ccc(C(=O)c2ccc(NC(=O)C(=O)NCCc3ccc(OC)cc3)cc2)cc1`, which Drug uptake [20] is on record?
Answer: The Drug uptake was 870 nM.

Question: What about the EC50 (NCI-H1155 [2]) of the same compound?
Answer: Its EC50 is 0.12 µM.

Question: What about the EC50 (NCI-H1155 [3]) of the same compound?
Answer: Its EC50 is 16 µM.

Question: What about the half-life at 0.5 µM (CYP4F11) of the same compound?
Answer: The half-life at 0.5 µM was 28 h.

Question: And the EC50 (NCI-H1155 [4])?
Answer: The EC50 was greater than 50 µM.

Question: What about the EC50 (NCI-H1155 [5]) of the same compound?
Answer: Its EC50 is 8.5 µM.

Question: And the EC50 (NCI-H2122 [6])?
Answer: Its EC50 is 0.028 µM.

Question: And the half-life at 0.5 µM [21]?
Answer: Its half-life at 0.5 µM is greater than 48 h.

Question: For `COc1ccc(CCNC(=O)C(=O)NC2CC2)cc1`, which Drug uptake [20] is on record?
Answer: The Drug uptake was 80 nM.

Question: What about the EC50 (NCI-H1155 [2]) of the same compound?
Answer: Its EC50 is greater than 50 µM.

Question: And the EC50 (NCI-H1155 [3])?
Answer: The EC50 was greater than 50 µM.

Question: What about the half-life at 0.5 µM (CYP4F11) of the same compound?
Answer: The half-life at 0.5 µM was 4.7 h.

Question: And the EC50 (NCI-H1155 [4])?
Answer: The EC50 was greater than 50 µM.

Question: And the EC50 (NCI-H1155 [5])?
Answer: Its EC50 is greater than 50 µM.

Question: And the EC50 (NCI-H2122 [6])?
Answer: The EC50 was greater than 50 µM.

Question: What about the half-life at 0.5 µM [21] of the same compound?
Answer: The half-life at 0.5 µM was greater than 48 h.

Question: With `COc1ccc(CCNC(=O)NC(=O)c2ccc(COc3ccccc3)cc2)cc1` as the compound, how does the Drug uptake [20] read?
Answer: Its Drug uptake is 1670 nM.

Question: And the “Ratio EC50” value (NCI-H1155 [22])?
Answer: Its value is 100.

Question: And the EC50 (NCI-H1155 [2])?
Answer: The EC50 was 0.034 µM.

Question: And the EC50 (NCI-H1155 [3])?
Answer: Its EC50 is greater than 50 µM.

Question: And the half-life at 0.5 µM (CYP4F11)?
Answer: Its half-life at 0.5 µM is 7.5 h.

Question: And the EC50 (NCI-H1155 [4])?
Answer: The EC50 was 3.6 µM.

Question: And the EC50 (NCI-H1155 [5])?
Answer: Its EC50 is greater than 50 µM.

Question: And the EC50 (NCI-H2122 [6])?
Answer: Its EC50 is 0.01 µM.

Question: What about the half-life [7] of the same compound?
Answer: The half-life was 2.63 h.

Question: What about the half-life at 0.5 µM [21] of the same compound?
Answer: The half-life at 0.5 µM was greater than 48 h.

Question: With `C#CCOc1ccc(C(=O)c2ccc(NC(=O)C(=O)NCCc3ccc(O)cc3)cc2)cc1` as the compound, how does the inhibition [23] read?
Answer: Its inhibition is greater than 98%.

Question: And the EC50 (NCI-H1155 [2])?
Answer: The EC50 was 0.21 µM.

Question: What about the EC50 (NCI-H1155 [3]) of the same compound?
Answer: The EC50 was greater than 50 µM.

Question: And the EC50 (NCI-H1155 [4])?
Answer: The EC50 was greater than 50 µM.

Question: And the EC50 (NCI-H1155 [5])?
Answer: Its EC50 is 0.008 µM.

Question: And the EC50 (NCI-H2122 [6])?
Answer: Its EC50 is 0.058 µM.

Question: And the half-life [7]?
Answer: The half-life was 0.217 h.

Question: What does the source list for `O=C(NCCc1ccc(O)cc1)C(=O)Nc1ccc(Cl)cc1`?
Answer: EC50 (NCI-H1155 [2]): 0.37 µM; EC50 (NCI-H1155 [3]): 37 µM; EC50 (NCI-H1155 [4]): 21 µM; EC50 (NCI-H1155 [5]): 0.39 µM; EC50 (NCI-H2122 [6]): 0.26 µM; half-life [7]: 1.18 h

Question: For `COc1ccc(CNC(=O)C(=O)Nc2ccc(Cl)cc2)cc1`, which Drug uptake [20] is on record?
Answer: The Drug uptake was 340 nM.

Question: What about the half-life at 0.5 µM [21] of the same compound?
Answer: The half-life at 0.5 µM was greater than 48 h.

From ChEMBL document CHEMBL4251748, “Discovery of Cytochrome P450 4F11 Activated Inhibitors of Stearoyl Coenzyme A Desaturase” (J Med Chem, 2018)
